{"source": "patent US20250008983A1", "about": "“COMPOSITIONS CONTAINING PEROXYACIDS TO CONTROL PATHOGEN GROWTH IN ANIMAL FEED AND RELATED METHODS” (KEMIN INDUSTRIES, INC., priority 2023, published 2025)", "format_in_all_cases": "cell-based", "key": {"[1]": {"tested_on": "Salmonella enterica isolated from layer feed", "experiment": "Preliminary in vitro feed assay, Salmonella count in contaminated feed over 21 days", "settings": "15 kg/ton", "procedure": "(§1) Preparation of the treatment. Perpropionic acid, peracetic acid, mixture of peroctanoic acid and perdecanoic acid (PC8/PC10) and Sal CURB products were used without any further dilution or mixing. The peroxy mix was prepared by mixing peracetic and perpropionic acid in 1:1 weight ratio. Briefly, 1.0 g of peroxy mix was prepared by weighing 0.5 g of peracetic acid into 0.5 g of perpropionic acid. The mixture was mixed well prior to usage. Similar procedure was followed in the preparation of 3% sulphuric acid (where […] of water) and peroxy mix with ester (where 0.9 g of peroxy mix (prepared with peracetic and propionic acid) was mixed with 0.1 g of propylene glycol propionate esters). […] Briefly, 1 mL of 75% phosphoric acid was added to 10 mL of Pro-Oxine solution and mixed well. The mixture is covered and let to stand for 10 mins prior to usage.\n(§2) Preparation of stock feed inoculum. The researchers prepared contaminated feed from known methods, where Salmonella enterica isolated from layer feed was revived from the glycerol stock by plating a loopful of culture onto the TSAYE (i.e., tryptone soya agar supplemented with 0.6% yeast extract (CM0131B; Oxoid) prepared as per recommended) and incubate for 18-24 hours at 37° C. Following which, the colonies were collected aseptically with saline solution (i.e., 0.9% sodium chloride (V800372; Sigma-Aldrich) prepared in deionized water), yielding approximately 5 mL of biomass suspension. The biomass suspension was diluted accordingly to meet the contamination level required for the stock inoculum. No dilution was required for high contamination level of ca. 10^7 cfu/g whereas biomass suspension was diluted 1000 times to achieve lower contamination level of ca. 10^4 cfu/g in the stock inoculum. The stock feed inoculum was prepared by adding the biomass suspension (5 mL) into 100 g of sterile feed (made up with 7:3 ground corn and soybean, autoclaved at 121° C. for one hour and dried for 24 hours at 65° C.) with a syringe and needle, and homogenously mixed after. The stock feed inoculum was stored at 25° C. for a week. Salmonella count of the stock inoculum was determined using conventional plating method with XLD agar (i.e., Xylose lysine deoxycholate (CM0469B; Oxoid)) and BPW (i.e., buffered peptone water (CM0509B; Oxoid)) prior to usage. Briefly, three grams of stock feed inoculum was weighed into a 50 mL conical tube, diluted with 27 mL of BPW, homogenously mixed and left to stand for 30 minutes. The feed suspension was then serial diluted to the appropriate dilutions. An aliquot of 0.1 mL of the feed suspension was plated onto the agar at each dilution and incubated at 37° C. for 18-24 hours prior to enumeration. Plating was carried out in triplicates. Blank stock feed was prepared by adding 5 mL of saline into 100 g of sterile feed.\n(§3) Preparation of the feed inoculum. The stock feed inoculum was diluted approximately 100 times with sterile feed where three grams of stock inoculum was added into 307 g of sterile feed and kept at 37° C. for 24 hours. The Salmonella count of the feed was determined prior to treatment. Briefly, 90 mL of BPW was added into 10 g of feed sample in a sterile bag (10^−1 dilution). The mixture was homogenously mixed with a stomacher at medium speed for three minutes and left to stand for 30 minutes. The feed supernatant was serial diluted to appropriate dilutions for plating. The plates were incubated at 37° C. for 18-24 hours prior to counting. If low Salmonella count was expected, the sample size was increased to 1 mL by plating 300, 300 and 400 uL onto three plates in triplicates for […] detection limit (10 cfu/g). Blank feed was prepared by adding three grams of blank stock feed into 307 g of sterile feed. In addition, an extra contaminated feed was prepared as a control.\n(§4) Treatment of contaminated feed. […]"}, "[2]": {"tested_on": "Escherichia coli ATCC 25922", "experiment": "Minimum inhibitory concentration (MIC), broth microdilution", "settings": "Escherichia coli", "procedure": "Materials and Methods. The assay was conducted to determine the minimum inhibitory concentration (MIC) of peroxy-acids against Escherichia coli ATCC 25922. E. coli was purchased from American Type Culture Collection (ATCC). The strain was stored at −80° C. in glycerol. Prior to usage, E. coli was revived by streaking a loopful of culture onto TSAYE (i.e., tryptone soya agar yeast extract (CM0131 and LP0021; Oxoid) prepared as per recommended by Oxoid) with overnight incubation at 37° C. An overnight culture of E. coli was diluted in TSBYE (i.e, tryptone soya broth yeast extract (CM0129; Oxoid) prepared as per recommended by Oxoid) to obtain a cell suspension of ca. 10^5 CFU/mL. Subsequently, 100 μL of the diluted culture was added to 100 μL of the test solutions at the needed concentrations into a microtiter plate (92096; TPP Techno Plastic Products AG). Peroxy-acids were tested at an active concentration of 25-1600 μg/mL. Subsequently, the inoculated plate was incubated at 37° C. up to 48 hours with the bacterial cell density recorded at optical density (OD) 600 nm at 24 hours interval using a microplate reader (Varioskan LUX; Thermo Fisher)."}, "[3]": {"tested_on": "Salmonella enterica isolated from layer feed", "experiment": "In vitro feed assay, high Salmonella contamination level (~5 log cfu/g)", "settings": "10.0 kg/ton", "procedure": "as §1, §2, §3, §4"}, "Enterobacteriaceae": {"tested_on": "Enterobacteriaceae", "procedure": "Materials and Method. Naturally contaminated layer feed was collected, ground, and mixed well prior to weighing. The ground feed was weighed and separated into 15 different bags, each containing 300 g. The product/prototype was accurately weighed at the needed dosage and adjusted to a total volume of 5 mL prior to adding into the 300 g of feed with a syringe and needle. Product/prototype was added in batches (i.e., 2, 2, and 1 mL separately) and mixed after each addition. Five mL of sterile water was added into the feed and served as the control. The treated feed samples were homogenized after treatment and kept at 25° C. until the day of enumeration.\nTEC of the 15 samples were studied over a period of 22 days with enumeration interval at time points 0, 1 and 22 days. The effect of peroxy acid was neutralized at each time point prior to enumeration. At each time point, 20 mL of 0.1 M sodium thiosulphate was added into 10 g of each treated feed sample in a sterile bag. The mixture was mixed well and left to stand for 10 minutes. After 10 minutes, 70 mL of BPW was added to achieve 10^−1 dilution. The feed suspension was homogenously mixed and left to stand for 30 minutes. Subsequently, the feed suspension was serial diluted to appropriate dilutions for enumeration. 100 uL of the diluted samples were plated onto Violet Red Bile Glucose (VRBG; CM0485 from Oxoid) agar, prepared as per recommended by the supplier. An aliquot of 0.1 mL of the feed suspension was plated onto the agar at each dilution and incubated at 37° C. for 18-24 hours prior to enumeration. Plating was carried out in triplicates. If low TEC is expected, the sample size is increased to 1 mL by plating 300, 300 and 400 uL onto three plates in triplicates for lower detection limit (10 CFU/g). The diluted feed samples (at 10^−1 dilution factor) were kept at 37° C. for 18-24 hours for enrichment prior to streaking. A loopful of diluted feed suspension was streaked onto the VRBG agar and incubated at 37° C. for 18-24 hours to determine qualitatively the presence of Enterobacteriaceae for samples with undetectable TEC."}}, "note": "Read-outs that look alike come from different tables or passages of the source."}
{"compound": "O=S(=O)(O)O", "note": "[3% w/w sulphuric acid, sulphuric acid]", "values": [{"measurement": "Salmonella killing effect", "setting": "[1]; over the 21 days", "result": "No Salmonella killing effect"}, {"measurement": "Salmonella count", "setting": "[1]; post-treatment Day 1", "result": 5.80, "unit": "log cfu/g"}, {"measurement": "Salmonella count", "setting": "[1]; post-treatment Day 6", "result": 5.02, "unit": "log cfu/g"}, {"measurement": "Salmonella count", "setting": "[1]; post-treatment Day 21", "result": 4.82, "unit": "log cfu/g"}, {"measurement": "Salmonella count", "setting": "[1]; pre-treatment Day 0", "result": 5.59, "unit": "log cfu/g"}]}
{"compound": "CC(=O)OO", "note": "[Peracetic acid, peracetic acid]", "values": [{"measurement": "MIC", "setting": "[2]; ATCC25922, preliminary results, read-out: MIC", "result": 300, "unit": "µg/mL"}, {"measurement": "MIC", "setting": "[2]; ATCC25922, no increment in OD over 48 hours, 37° C., read-out: Minimum inhibitory concentration (μg/mL) against E. coli", "result": 300, "unit": "µg/mL"}, {"measurement": "Salmonella count", "setting": "[3]; post-treatment Day 1", "result": 2.01, "unit": "log cfu/g"}, {"measurement": "Salmonella count", "setting": "[3]; post-treatment Day 2", "result": "BD (Salmonella count is below detection limit (1 log cfu/g))"}, {"measurement": "Salmonella count", "setting": "[3]; post-treatment Day 3", "result": "BD (Salmonella count is below detection limit (1 log cfu/g))"}, {"measurement": "Salmonella count", "setting": "[3]; post-treatment Day 6", "result": 2.11, "unit": "log cfu/g"}, {"measurement": "Salmonella count", "setting": "[3]; post-treatment Day 14", "result": "BD (Salmonella count is below detection limit (1 log cfu/g))"}, {"measurement": "Salmonella count", "setting": "[3]; post-treatment Day 21", "result": 1.12, "unit": "log cfu/g"}, {"measurement": "Salmonella count", "setting": "[3]; pre-treatment Day 0", "result": 5.98, "unit": "log cfu/g"}, {"measurement": "Salmonella count", "setting": "[1]; pre-treatment Day 0", "result": 5.63, "unit": "log cfu/g"}, {"measurement": "TEC", "setting": "Enterobacteriaceae; 2.5 kg/ton, post treatment Day 1", "result": "<1.00", "unit": "log CFU/g"}, {"measurement": "TEC", "setting": "Enterobacteriaceae; 2.5 kg/ton, post treatment Day 22", "result": 3.32, "unit": "log CFU/g"}, {"measurement": "TEC", "setting": "Enterobacteriaceae; 2.5 kg/ton, pre-treatment Day 0", "result": 3.37, "unit": "log CFU/g"}, {"measurement": "TEC", "setting": "Enterobacteriaceae; 5.0 kg/ton, post treatment Day 1", "result": 2.39, "unit": "log CFU/g"}, {"measurement": "TEC", "setting": "Enterobacteriaceae; 5.0 kg/ton, post treatment Day 22", "result": "<1.00", "unit": "log CFU/g"}, {"measurement": "TEC", "setting": "Enterobacteriaceae; 5.0 kg/ton, pre-treatment Day 0", "result": "<2.00", "unit": "log CFU/g"}, {"measurement": "TEC", "setting": "Enterobacteriaceae; 10.0 kg/ton, post treatment Day 1", "result": 1.43, "unit": "log CFU/g"}, {"measurement": "TEC", "setting": "Enterobacteriaceae; 10.0 kg/ton, post treatment Day 22", "result": "<1.00", "unit": "log CFU/g"}, {"measurement": "TEC", "setting": "Enterobacteriaceae; 10.0 kg/ton, pre-treatment Day 0", "result": 2.52, "unit": "log CFU/g"}]}
